Assay results: patent US20100010035A1, “Novel Dual Action Receptors Antagonists (Dara) at the Ati and Eta Receptors” (priority 2006, published 2010)

What was measured:
human AT1 receptor = target: T1, human AT1 receptor (Homo sapiens, UniProt P30556); assay: AT1 functional assay (FLIPR Ca efflux, Angiotensin-II at EC80); type: cell-based; details: CHO cells over-expressing full length human AT1 receptor; Angiotensin-II as agonist at EC80
T1 construct: CHO cell stably over-expressing the full length human AT1 receptor; expressed in transfected cells
T1 sequence (P30556 1-359): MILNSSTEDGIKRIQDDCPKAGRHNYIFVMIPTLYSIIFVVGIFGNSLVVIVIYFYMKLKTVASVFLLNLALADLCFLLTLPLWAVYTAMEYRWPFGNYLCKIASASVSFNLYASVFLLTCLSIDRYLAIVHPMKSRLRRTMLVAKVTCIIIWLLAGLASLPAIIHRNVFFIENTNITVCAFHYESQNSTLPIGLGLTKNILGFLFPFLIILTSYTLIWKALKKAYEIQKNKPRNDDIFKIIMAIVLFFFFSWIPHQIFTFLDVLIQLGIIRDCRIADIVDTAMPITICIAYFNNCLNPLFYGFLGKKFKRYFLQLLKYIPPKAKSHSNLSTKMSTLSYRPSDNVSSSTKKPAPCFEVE
Method: CHO cell stably over-expressing the full length human AT1 receptor was cultured in DMEM (Gibco) with 10% FCS (Hyclone) and selection maintained using 0.5 mg/ml G418 (Gibco). Cell at 70% confluence were trypsnised, resuspended in media and counted. 20,000 cells/well were plated into black polystyrene 384-well plates with transparent bottoms and allowed 16 hours to adhere. The cells were loaded with Flou-4 (TEFLABS, USA) dye in HBSS (Gibco) for 1 hour and then washed in HBSS and 0.6 μl of diluted compounds in DMSO added to the cells in 30 μd of HBSS in Multimek liquid handling system (Beckman, USA). The cells were then placed in the Fluorometric Imaging Plate Readers (FLIPR, Molecular Devices, USA) and 20 μl of Angiotensin-II peptide as agonist (at EC80) in HBSS was added in the instrument.
(§1) The Ca efflux was followed for 2 mins and the maximum height of the peak was measured at various compound concentrations and plotted according to the equation
(§2) and IC50 estimated wherein A is the bottom plateau of the curve i.e. the final minimum y value B is the top of the plateau of the curve i.e. the final maximum y value C is the x value at the middle of the curve. This represents the log EC50 value when A+B=100 D is the slope factor. x is the original known x values. y is the original known y values.

human ETA receptor = target: T2, human ETA receptor (Homo sapiens, UniProt P25101); assay: ETA functional assay (FLIPR Ca efflux, Endothelin-1 at EC80); type: cell-based; details: CHO cells over-expressing full length human ETA receptor; Endothelin-1 as agonist at EC80
T2 construct: CHO cell stably over-expressing the full length human ETA receptor; expressed in transfected cells
T2 sequence (P25101 21-427): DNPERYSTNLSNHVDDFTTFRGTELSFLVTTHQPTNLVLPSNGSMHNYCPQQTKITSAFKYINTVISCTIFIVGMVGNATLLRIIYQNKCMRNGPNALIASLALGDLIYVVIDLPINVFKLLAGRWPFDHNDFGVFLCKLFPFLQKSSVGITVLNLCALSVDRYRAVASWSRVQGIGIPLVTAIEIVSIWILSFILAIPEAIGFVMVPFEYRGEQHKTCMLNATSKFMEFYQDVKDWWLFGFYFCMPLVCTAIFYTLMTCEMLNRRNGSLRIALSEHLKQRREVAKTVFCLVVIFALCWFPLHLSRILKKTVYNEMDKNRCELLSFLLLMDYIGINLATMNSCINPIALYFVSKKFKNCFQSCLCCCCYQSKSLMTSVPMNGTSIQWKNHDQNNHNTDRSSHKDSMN
Method: CHO cell stably over-expressing the full length human ETA receptor was cultured in DMEM (Gibco) with 10% FCS (Hyclone) and selection maintained using 0.5 mg/ml G418 (Gibco). Cell at 70% confluence were trypsnised, resuspended in media and counted. 20,000 cells/well were plated into black polystyrene 384-well plates with transparent bottoms and allowed 16 hours to adhere. The cells were loaded with Flou-4 (TEFLABS, USA) dye in BSS (Gibco) for 1 hour and then washed in HBSS and 0.6 μl of diluted compounds in DMSO added to the cells in 30 μl of HBSS in Multimek liquid handling system (Beckman, USA). The cells were then placed in the Fluorometric Imaging Plate Readers (FLIPR, Molecular Devices, USA) and 20 μl of Endothelin-1 peptide as agonist in HBSS (at EC80) was added in the instrument.
as §1, §2

Row | IC50 (human AT1 receptor) [µM] | IC50 (human ETA receptor) [µM] | SMILES
1 | 0.125 | 2.92 | CCc1cc2c(c(Sc3ccccc3)cc(=O)n2Cc2ccc(-c3ccsc3S(=O)(=O)Nc3noc(C)c3C)cc2)c(CC)n1 [Example 3, 3-[4-(5,7-diethyl-2-oxo-4-phenylsulphanyl-2H-[1,6]naphthyridin-1 ylmethyl)-phenyl]-thiophene-2-sulphonic acid(4,5-dimethyl-isoxazol-3-yl)-amide]
2 | 0.029 | 6.2 | CCc1cc(OCc2ccc(-c3ccsc3S(=O)(=O)Nc3noc(C)c3C)cc2)c(C(=O)c2ccccc2)c(C)n1 [Example 4, 3-[4-(3-Benzoyl-6-ethyl-2-methyl-pyridin-4-yloxymethyl)-phenyl]-thiophene-2-sulphonic acid (4,5-dimethyl-isoxazol-3-yl)-amide]
3 | 0.0229 | 0.562 | CCOCc1cc(Cn2nc(C)c3c(C)nc(CC)cc32)ccc1-c1cc(C)sc1S(=O)(=O)Nc1noc(C)c1C [Example 6, 3-[2-Ethoxymethyl-4-(6-ethyl-3,4-dimethyl-pyrazolo[4,3-c]pyridine-1-ylmethyl)-phenyl]-5-methyl-thiophene-2-sulphonic acid(4,5-dimethyl-isoxazol-3-yl)-amide]
4 | 0.0246 | 0.814 | CCc1cc2c(ccc(=O)n2Cc2ccc(-c3cc(C)sc3S(=O)(=O)Nc3noc(C)c3C)cc2)c(CC)n1 [Example 7, 3-[4-(5,7-diethyl-2-oxo-2H-[1,6]naphthyridin-1-yl-methyl)-phenyl]-5-methyl-thiophene-2-sulphonic acid-(4,5 dimethyl-isoxazol-3-yl)-amide]
5 | 0.0208 | 2.87 | CCc1cc2c(c(Oc3ccccc3)cc(=O)n2Cc2ccc(-c3ccsc3S(=O)(=O)Nc3noc(C)c3C)cc2)c(CC)n1 [Example 8, 3-[4-(5,7-diethyl-2-oxo-4-phenoxy-2H-[1,6]naphthyridin-1-ylmethyl)-phenyl]-thiophene-2-sulphonic acid(4,5-dimethyl-isoxazol-3-yl)-amide]
6 | 0.0114 | 0.503 | CCOCc1cc(Cn2nc(Cn3nc(C)cc3C)c3c(C)nc(C)cc32)ccc1-c1cc(C)sc1S(=O)(=O)Nc1noc(C)c1C [Example 15, 3-{4-[3-(3,5-Dimethyl-pyrazol-1-ylmethyl)-4,6-dimethyl-pyrazolo[4,3-c]pyridin-1-ylmethyl]2-ethoxymethyl-phenyl}-5-methyl-thiophene-2-sulphonic acid (4,5-dimethyl-isoxazol-3-yl)-amide]
7 | 0.00798 | 1.43 | Cc1cc2c(c(C)n1)c(-c1ccccc1)nn2Cc1ccc(-c2cc(C)sc2S(=O)(=O)Nc2noc(C)c2C)c(C)c1 [Example 18]
8 | 0.00747 | 0.464 | COCc1cc(Cn2nc(-c3cccs3)c3c(C)nc(C)cc32)ccc1-c1cc(C)sc1S(=O)(=O)Nc1noc(C)c1C [Example 21, 3-[4-(4,6-dimethyl-3-thiophen-2-yl-pyrazolo[4,3-c]pyridin-1-ylmethyl)-2-methoxymethyl-phenyl]-5-methyl-thiophene-2-sulfonic acid (4,5-dimethyl-isoxazol-3-yl)-amide]
9 | 0.0252 | 0.454 | CCOCc1cc(Cn2nc(-c3cccs3)c3c(C)nc(CC)cc32)ccc1-c1cc(C)sc1S(=O)(=O)Nc1noc(C)c1C [Example 22, 3-[2-Ethoxymethyl-4-(6-ethyl-4-methyl-3-thiophen-2-yl-pyrazolo[4,3-c]pyridin-1-ylmethyl)-phenyl]-5-methyl-thiophene-2-sulfonic acid (4,5-dimethyl-isoxazol-3-yl)-amide]
10 | 0.0221 | 0.248 | CCOCc1cc(Cn2nc(-c3ccc(OC)cc3)c3c(C)nc(CC)cc32)ccc1-c1cc(C)sc1S(=O)(=O)Nc1noc(C)c1C [Example 23, 3-{2-Ethoxymethyl-4-[6-ethyl-3-(4-methoxy-phenyl)-4-methyl-pyrazolo[4,3-c]pyridin-1-ylmethyl]-phenyl}-5-methyl-thiophene-2-sulfonic acid (4,5-dimethyl-isoxazol-3-yl)-amide]
11 | 0.0274 | 1.89 | CCc1cc2c(c(C)n1)c(-c1ccc(OC)cc1)nn2Cc1ccc(-c2cc(C)sc2S(=O)(=O)Nc2noc(C)c2C)c(C)c1 [Example 24, 3-{4-[6-Ethyl-3-(4-methoxy-phenyl)-4-methyl-pyrazolo[4,3-c]pyridin-1-ylmethyl]-2-methyl-phenyl}-5-methyl-thiophene-2-sulfonic acid (4,5-dimethyl-isoxazol-3-yl)-amide]
12 | 0.117 | 18.9 | CCOc1nc2cccc(C(=O)O)c2n1Cc1ccc(-c2cc(C)sc2S(=O)(=O)Nc2onc(C)c2C)cc1 [Example 26, 3-{4-[2-(3,4-dimethyl-isoxazol-5-ylsulfamoyl)-5-methyl-thiophen-3-yl]-benzyl}-2-ethoxy-3H-benzoimidazole-4-carboxylic acid]
13 | 0.0156 | 0.646 | CCOCc1cc(Cn2nc(-c3cccs3)c3c(C)nc(CC)cc32)ccc1-c1cc(C)sc1S(=O)(=O)Nc1onc(C)c1C [Example 27, 3-[2-Ethoxymethyl-4-(6-ethyl-4-methyl-3-thiophen-2-yl-pyrazolo[4,3-c]pyridin-1-ylmethyl)-phenyl]-5-methyl-thiophene-2-sulfonic acid (3,4-dimethyl-isoxazol-5-yl)-amide]
14 | 0.0159 | 0.292 | Cc1cc2c(cc(-c3ccccc3)c(=O)n2Cc2ccc(-c3cc(C)sc3S(=O)(=O)Nc3noc(C)c3C)c(C)c2)c(C)n1 [Example 29, 3-[4-(5,7-dimethyl-2-oxo-3-phenyl-2H-[1,6]naphthyridin-1-ylmethyl)-2-methyl-phenyl]-5-methyl-thiophene-2-sulfonic acid (4,5-dimethyl-isoxazol-3-yl)-amide]
15 | 0.0189 | 3.32 | CCc1cc2c(ccc(=O)n2Cc2ccc(-c3cc(C)sc3S(=O)(=O)Nc3onc(C)c3C)c(C)c2)c(CC)n1 [Example 30, 3-[4-(5,7-diethyl-2-oxo-2H-[1,6]naphthyridin-1-ylmethyl)-2-methyl-phenyl]-5-methyl-thiophene-2-sulfonic acid (3,4-dimethyl-isoxazol-5-yl)-amide]
16 | 0.0276 | 2.57 | CCc1cc2c(ccc(=O)n2Cc2ccc(-c3cc(C)sc3S(=O)(=O)Nc3noc(C)c3C)c(F)c2)c(CC)n1 [Example 35, 3-[4-(5,7-Diethyl-2-oxo-2H-[1,6]naphthyridin-1-ylmethyl)-2-fluoro-phenyl]-5-methyl-thiophene-2-sulfonic acid (4,5-dimethyl-isoxazol-3-yl)-amide]
17 | 0.153 | 0.407 | Cc1cc2c(c(C)n1)c(-c1ccc(Cl)cc1)nn2Cc1ccc(-c2cc(C)sc2S(=O)(=O)Nc2noc(C)c2C)c(C)c1 [Example 37, 3-{4-[3-(4-Chloro-phenyl)-4,6-dimethyl-pyrazolo[4,3-c]pyridin-1-ylmethyl]-2-methyl-phenyl}-5-methyl-thiophene-2-sulfonic acid (4,5-dimethyl-isoxazol-3-yl)-amide]

Row | SMILES | IC50 (human AT1 receptor) [µM] | IC50 (human ETA receptor) [µM]
18 | CCc1cc2c(c(C)n1)c(-c1ccccc1)nn2Cc1ccc(-c2ccsc2S(=O)(=O)Nc2ncc(C)nc2OC)cc1 [Example 34] | 0.189 | 7.04
19 | Cc1cc2c(ccc(=O)n2Cc2ccc(-c3cc(C)sc3S(=O)(=O)Nc3noc(C)c3C)c(OCC(C)C)c2)c(C)n1 [Example 36, 3-[4-(5,7-Dimethyl-2-oxo-2H-[1,6]naphthyridin-1-ylmethyl)-2-isobutoxy-phenyl]-5-methyl-thiophene-2-sulfonic acid (4,5-dimethyl-isoxazol-3-yl)-amide] | 0.0583 | 0.758
